In article PMC10722238, “Development and validation of PAMPA-BBB QSAR model to predict brain penetration potential of novel drug candidates” (Frontiers in Pharmacology, 2023):

Assay: Stirring Double-Sink PAMPA-BBB permeability assay
Format: in vitro ADME, porcine
Conditions: for PAMPA-BBB permeability category of control compound: control compounds used in each plate, category in words; for Papp at 60 min, 0.05 mM: pig, PAMPA, control compounds run in each plate for over 50 plates, 0.5% DMSO, phosphate buffer, room temperature, UV readout, read-out: PAMPA-BBB permeability Pe (mean ± S.D)
Description: The stirring Double-SinkTM PAMPA-BBB method patented by Pion Inc. (Billerica, MA) was employed to determine the permeability of compounds ([[…], 2013]). The PAMPA lipid membrane, which consists of porcine brain lipid extract dissolved in alkane (Pion Inc.), was optimized to predict BBB passive permeability. This membrane was immobilized on a PVDF matrix of a 96 well “acceptor” filter plate placed on top of a 96 well “donor” plate containing coated magnetic stirrers. The test articles, stocked in 10 mM DMSO solutions, were diluted to 0.05 mM in aqueous phosphate buffer and the concentration of DMSO was 0.5% in the final solution. During the 60-min permeation study period, conducted at room temperature, the test samples in the donor compartment were stirred using the Gutbox technology (Pion Inc.) to reduce the aqueous boundary layer to 60 μm. The test article concentrations in the “donor” and “acceptor” compartments were measured using a UV plate reader (Nano Quant, Infinite® 200 PRO, Tecan Inc., Männedorf, Switzerland). Permeability (Pe) calculations were performed using Pion Inc. Software and were expressed in units of 10^-6 cm/s.

PAMPA-BBB permeability category of control compound	Papp at 60 min, 0.05 mM [×10⁻⁶ cm/s]	Compound
moderate permeability	21 ± 2.3	NC(=O)N1c2ccccc2C=Cc2ccccc21 [Carbamazepine, carbamazepine]
high permeability	87 ± 10.1	CC(=O)[C@H]1CC[C@H]2[C@@H]3CCC4=CC(=O)CC[C@]4(C)[C@H]3CC[C@]12C [Progesterone, progesterone]

Compound	PAMPA-BBB permeability category of control compound	Papp at 60 min, 0.05 mM [×10⁻⁶ cm/s]
Cn1c(=O)c2c(ncn2C)n(C)c1=O [Caffeine, caffeine]	low permeability	< 1
